Source: patent US10006079B2, “Method for establishing the anti-diabetic potential of bitter melon” (Glykon Technologies Group, LLC, priority 2013, dated 2018)

What was measured:
Normal Rats = assay: Hypoglycemic activity of bitter melon extracts in normal rats (blood glucose after oral glucose challenge); type: in vivo, Wistar Albino male rats; conditions: for hypoglycemia in normal animals (glucose <70 mg/dL in this model): 50 mg/kg
Experimental: (§1) This and related experiments subsequently were published (Clouatre et al., 2011.) Wistar Albino male rats 12 weeks of age were obtained from St John's Pharmacy College Animal House, India and handled according to institutional practices. […] All rats were fed a standard rat chow diet ad libitum from Sai Durga Feed, Bangalore; water also was supplied ad libitum. Following 7 days acclimatization, one half of the rats were fasted for 24 hours and then injected with freshly prepared STZ in citrate buffer [[…]] (45 mg/kg, i.p). After one week, rats with marked hyperglycemia (fasting blood glucose >300 mg/dL) were used as the diabetic rats.
(§2) Extracts 1-4 were produced and preserved via different methods attempting to retain efficacies reported for macerated fresh fruit preparations. EX-1 was a vacuum-dried powder of the macerated extract of fresh fruit (˜25:1). EX-2 was a freeze-dried powder of the macerated extract of fresh fruit (˜25:1). EX-3 was a spray-dried powder of the macerated extract of fresh fruit (˜25:1). EX-4 was a vacuum-dried powder of the macerated extract of fresh fruit adsorbed onto powdered vacuum-dried fresh fruit (˜15:1). Dosages of the extracts (mg/kg bodyweight/day) were 50 and 250 mg/kg as indicated. After an overnight fast, the extract samples suspended in 5% gum acacia were administered to the animals by gastric intubations with a syringe.
(§3) For test purposes, glucose was given orally by intubation as a 40% solution (1 g/kg body wt). Blood samples following the glucose challenge were collected for the measurement of blood glucose from the tail vein at 0, 1, 2, 3 and 4 hrs. The blood glucose level was determined by using an electronic glucometer (Accu Check, Roche Diagnostic).
First, the hypoglycemic activity of bitter melon extracts was studied in normal rats.

[1] = test system: streptozotocin-induced diabetic rats; assay: Anti-hyperglycemic activity of bitter melon extracts in streptozotocin-induced diabetic rats (blood glucose); type: in vivo, Wistar Albino male rats; conditions: extracts 250 mg/kg, metformin 150 mg/kg
Experimental: as §1, §2, §3
Next, the anti-hyperglycemic activity of bitter melon extracts was studied in streptozotocin-induced diabetic rats described above.

hypoglycemia in normal animals (glucose <70 mg/dL in this model) (Normal Rats): resulted in hypoglycemia | hypoglycemia in normal animals (glucose <70 mg/dL in this model) (Normal Rats; listed as metformin): led to hypoglycemia
Structure (SMILES): CN(C)C(=N)N=C(N)N [Metformin, metformin]
Blood Glucose Level, Treatment +1 hr (Normal Rats; 50 mg/kg oral, +1 hr): 85.5 ± 1.8 mg % | Blood Glucose Level, Treatment +2 hr (Normal Rats; 50 mg/kg oral, +2 hr): 73.5 ± 1.2 mg % | percent reduction in blood sugar level compared with initial glucose value (0 h) (Normal Rats; 50 mg/kg oral, +2 hr): (34.9) percent | Blood Glucose Level, Treatment +3 hr (Normal Rats; 50 mg/kg oral, +3 hr): 66.5 ± 1.2 mg % | percent reduction in blood sugar level compared with initial glucose value (0 h) (Normal Rats; 50 mg/kg oral, +3 hr): (46.4) percent | Blood Glucose Level, Treatment +4 hr (Normal Rats; 50 mg/kg oral, +4 hr): 52.5 ± 0.7 mg % | percent reduction in blood sugar level compared with initial glucose value (0 h) (Normal Rats; 50 mg/kg oral, +4 hr): (53.5) percent | Blood Glucose Level, Initial (0 hr) (Normal Rats; 50 mg/kg oral, initial value 0 hr): 93.3 ± 1.3 mg % | reduced blood glucose, percent ([1]; diabetic animals, at 4 hours): 53.52 percent (mg %) | Blood Glucose Level, Treatment +1 hr ([1]; diabetic rats, +1 hr): 271.6 ± 4.0 mg % | Blood Glucose Level, Treatment +2 hr ([1]; diabetic rats, +2 hr): 214.4 ± 3.2 mg % | percent reduction of blood sugar level compared with initial level of blood glucose (0 h) ([1]; diabetic rats, +2 hr): (34.9) percent | Blood Glucose Level, Treatment +3 hr ([1]; diabetic rats, +3 hr): 176.0 ± 6.7 mg % | percent reduction of blood sugar level compared with initial level of blood glucose (0 h) ([1]; diabetic rats, +3 hr): (46.4) percent | Blood Glucose Level, Treatment +4 hr ([1]; diabetic rats, +4 hr): 153.0 ± 3.3 mg % | percent reduction of blood sugar level compared with initial level of blood glucose (0 h) ([1]; diabetic rats, +4 hr): (53.5) percent | Blood Glucose Level, Initial (0 hr) ([1]; diabetic rats, initial value 0 hr): 329.2 ± 5.3 mg %
